According to patent US7700602B2, “Amino-5,5-diphenylimidazolone derivatives for the inhibition of β-secretase” (Wyeth LLC, priority 2004, dated 2010):
Read-outs that look alike come from different tables or passages of the source.

Tests used:
human BACE1 = human BACE1 (Homo sapiens, UniProt P56817); assay: Fluorescent kinetic assay, inhibition of BACE1 (WABC-6 peptide substrate); assay type: biochemical;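 note: fluorescence monitored at 320 nm excitation and 420 nm emission every 40 s over 30 min, with the substrate cleavage rate taken from the linear slope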
human BACE2 = target: T1, human BACE2 (Homo sapiens, UniProt Q9Y5Z0); assay: Fluorescent Kinetic Assay for Human Recombinant BACE 2 (selectivity BACE1/BACE2); assay type: biochemical; settings: selectivity BACE1 over BACE2; 1.5 nM human BACE2, 25 μM substrate, pH 4.5;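 note: cleavage rate from the linear slope of fluorescence (excitation 320 nm, emission 420 nm) recorded every 40 s over 30 min at room temperature, sodium acetate buffer with 0.05% CHAPS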
T1 sequence (Q9Y5Z0 63-518): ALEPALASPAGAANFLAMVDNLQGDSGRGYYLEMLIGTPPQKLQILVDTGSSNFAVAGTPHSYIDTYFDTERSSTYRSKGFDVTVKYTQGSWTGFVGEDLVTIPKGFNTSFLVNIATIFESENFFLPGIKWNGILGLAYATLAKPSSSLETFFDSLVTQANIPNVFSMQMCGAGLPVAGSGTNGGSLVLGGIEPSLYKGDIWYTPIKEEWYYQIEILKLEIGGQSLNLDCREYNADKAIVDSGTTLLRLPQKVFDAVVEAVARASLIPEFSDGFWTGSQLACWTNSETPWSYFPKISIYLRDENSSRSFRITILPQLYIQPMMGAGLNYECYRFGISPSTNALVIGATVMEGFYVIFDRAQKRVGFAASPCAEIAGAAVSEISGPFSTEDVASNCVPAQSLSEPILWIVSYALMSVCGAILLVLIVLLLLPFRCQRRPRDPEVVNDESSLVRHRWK

[1] = 10 nM enzyme, 25 μM substrate WABC-6, pH 4.5, room temperature, read-out: IC50 (μM) BACE1

Chain of human BACE1 (P56817 46-501): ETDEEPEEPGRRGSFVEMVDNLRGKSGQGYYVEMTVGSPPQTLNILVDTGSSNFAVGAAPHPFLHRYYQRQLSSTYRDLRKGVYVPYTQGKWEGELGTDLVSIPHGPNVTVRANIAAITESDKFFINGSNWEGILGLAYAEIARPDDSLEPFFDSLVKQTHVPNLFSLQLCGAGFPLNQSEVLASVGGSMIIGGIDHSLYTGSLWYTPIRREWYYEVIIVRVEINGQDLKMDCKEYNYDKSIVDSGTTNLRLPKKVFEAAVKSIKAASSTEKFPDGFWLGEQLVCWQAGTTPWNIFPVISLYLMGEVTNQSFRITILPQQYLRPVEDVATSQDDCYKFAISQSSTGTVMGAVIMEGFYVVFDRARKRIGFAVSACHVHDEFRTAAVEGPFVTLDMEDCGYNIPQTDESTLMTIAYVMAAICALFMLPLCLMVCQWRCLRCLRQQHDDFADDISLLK

SMILES	IC50 (human BACE1) [µM]	IC50 (human BACE1; [1]) [µM]	BACE1/BACE2 selectivity (human BACE2)
COc1ccc(C2(c3ccc(C#N)c(-c4cccnc4)c3)N=C(N)N(C)C2=O)cc1C (stereo not drawn) [Example 5, 4-[2-amino-4-(4-methoxy-3-methylphenyl)-1-methyl-5-oxo-4,5-dihydro-1H-imidazol-4-yl]-2-pyridin-3-ylbenzonitrile]	0.11 to 1		
CCN1C(=O)C(c2cccc(-c3cccnc3)c2)(c2ccc(OC)c(C)c2)N=C1N (stereo not drawn) [Example 8]		0.01 to 0.1	II (II = 10-100-fold selectivity)
COc1ccc(C2(c3cccc(-c4cnccn4)c3)N=C(N)N(C)C2=O)cc1C (stereo not drawn) [Example 9]		0.01 to 0.1	II (II = 10-100-fold selectivity)
Cc1cc(C2(c3cccc(-c4cccnc4)c3)N=C(N)N(C)C2=O)ccc1O (stereo not drawn) [Example 10]		0.01 to 0.1	II (II = 10-100-fold selectivity)
CCCOc1cc(C2(c3cccc(-c4cccnc4)c3)N=C(N)N(C)C2=O)ccc1OC (stereo not drawn) [Example 16]		0.01 to 0.1	III (III = <10-fold selectivity)
CCCCOc1cc(C2(c3cccc(-c4cccnc4)c3)N=C(N)N(C)C2=O)ccc1OC (stereo not drawn) [Example 17]		0.01 to 0.1	III (III = <10-fold selectivity)
COc1ccc(C2(c3cccc(-c4cccnc4)c3)N=C(N)N(C)C2=O)cc1OC(C)C (stereo not drawn) [Example 18]	0.01 to 0.1		II (II = 10-100-fold selectivity)
COc1ccc(C2(c3cccc(-c4cccnc4)c3)N=C(N)N(C)C2=O)cc1C#N (stereo not drawn) [Example 20]	0.11 to 1		III (III = <10-fold selectivity)
COc1ccc(C2(c3cccc(-c4cccnc4)c3)N=C(N)N(C)C2=O)cc1F (stereo not drawn) [Example 21]	0.01 to 0.1		
CCOc1cc(C2(c3cccc(-c4cccnc4)c3)N=C(N)N(C)C2=O)ccc1OC (stereo not drawn) [Example 24]	0.01 to 0.1		II (II = 10-100-fold selectivity)
CN1C(=O)C(c2ccc(OC(F)(F)F)cc2)(c2cccc(-c3ncccn3)c2)N=C1N (stereo not drawn) [Example 37, 2-Amino-3-methyl-5-(3-pyrimidin-2-ylphenyl)-5-[4-(trifluoromethoxy)phenyl]-3,5-dihydro-4H-imidazol-4-one]		0.01 to 0.1	III (III = <10-fold selectivity)
CN1C(=O)C(c2ccc(OC(F)(F)F)c(F)c2)(c2ccc(F)c(-c3cncc(F)c3)c2)N=C1N (stereo not drawn) [Example 41, 2-Amino-5-[4-fluoro-3-(5-fluoropyridin-3-yl)phenyl]-5-[3-fluoro-4-(trifluoromethoxy)phenyl]-3-methyl-3,5-dihydro-imidazol-4-one]		0.11 to 1	II (II = 10-100-fold selectivity)
CN1C(=O)C(c2ccc(OC(F)(F)F)c(F)c2)(c2ccc(F)c(-c3cccnc3F)c2)N=C1N (stereo not drawn) [Example 43]		0.01 to 0.1	II (II = 10-100-fold selectivity)
CN1C(=O)C(c2ccc(OC(F)(F)F)cc2)(c2cccc(-c3cncnc3)c2F)N=C1N (stereo not drawn) [Example 48]		> 1	II (II = 10-100-fold selectivity)
COc1ncccc1-c1cccc(C2(c3ccc(OC(F)(F)F)cc3)N=C(N)N(C)C2=O)c1 (stereo not drawn) [Example 52]		0.11 to 1	II (II = 10-100-fold selectivity)
COc1ccc(C2(c3ccc(F)c(-c4ccc(F)nc4)c3)N=C(N)N(C)C2=O)cc1C(F)(F)F (stereo not drawn) [Example 57]		0.01 to 0.1	II (II = 10-100-fold selectivity)
COc1ccc(C2(c3ccc(F)c(-c4cccnc4F)c3)N=C(N)N(C)C2=O)cc1C(F)(F)F (stereo not drawn) [Example 58]		0.01 to 0.1	II (II = 10-100-fold selectivity)
COc1ccc(C2(c3cccc(-c4cccnc4F)c3)N=C(N)N(C)C2=O)cc1C (stereo not drawn) [Example 59]		0.01 to 0.1	II (II = 10-100-fold selectivity)
COc1ccc(C2(c3ccc(F)c(-c4cncc(F)c4)c3)N=C(N)N(C)C2=O)cc1 (stereo not drawn) [Example 60]		0.01 to 0.1	II (II = 10-100-fold selectivity)
COc1ccc(C2(c3ccc(F)c(-c4cncc(F)c4)c3)N=C(N)N(C)C2=O)cc1C (stereo not drawn) [Example 61]		0.01 to 0.1	II (II = 10-100-fold selectivity)
COc1ccc(C2(c3ccc(F)c(-c4cccnc4F)c3)N=C(N)N(C)C2=O)cc1 (stereo not drawn) [Example 62]		0.01 to 0.1	II (II = 10-100-fold selectivity)

SMILES	IC50 (human BACE1) [µM]	IC50 (human BACE1; [1]) [µM]	BACE1/BACE2 selectivity (human BACE2)
COc1ccc(C2(c3ccc(F)c(-c4cncnc4)c3)N=C(N)N(C)C2=O)cc1 (stereo not drawn) [Example 63]		0.01 to 0.1	I (I = >100-fold selectivity)
CN1C(=O)C(c2ccc(OC(F)(F)F)cc2)(c2cccc(-c3ccc(F)nc3)c2)N=C1N (stereo not drawn) [Example 65]		0.11 to 1	II (II = 10-100-fold selectivity)
CCOc1ccc(C2(c3cccc(-c4cncc(OC)c4)c3)N=C(N)N(C)C2=O)cc1OCC (stereo not drawn) [Example 67]		0.01 to 0.1	III (III = <10-fold selectivity)
CCOc1ccc(C2(c3cccc(-c4cccnc4OC)c3)N=C(N)N(C)C2=O)cc1OCC (stereo not drawn) [Example 68]		0.11 to 1	III (III = <10-fold selectivity)
CCOc1ccc(C2(c3cccc(-c4ccc(F)nc4)c3)N=C(N)N(C)C2=O)cc1OCC (stereo not drawn) [Example 69]		0.01 to 0.1	III (III = <10-fold selectivity)
CCOc1ccc(C2(c3cccc(-c4cccnc4F)c3)N=C(N)N(C)C2=O)cc1OCC (stereo not drawn) [Example 70]		0.01 to 0.1	II (II = 10-100-fold selectivity)
COc1cncc(-c2cc(C3(c4ccc(OC(F)(F)F)cc4)N=C(N)N(C)C3=O)ccc2F)c1 (stereo not drawn) [Example 71]		0.01 to 0.1	III (III = <10-fold selectivity)
COc1ncccc1-c1cc(C2(c3ccc(OC(F)(F)F)cc3)N=C(N)N(C)C2=O)ccc1F (stereo not drawn) [Example 72]		0.11 to 1	II (II = 10-100-fold selectivity)
CN1C(=O)C(c2ccc(OC(F)(F)F)cc2)(c2ccc(F)c(-c3ccc(F)nc3)c2)N=C1N (stereo not drawn) [Example 73]		0.11 to 1	II (II = 10-100-fold selectivity)
CN1C(=O)C(c2ccc(OC(F)(F)F)cc2)(c2ccc(F)c(-c3cccnc3F)c2)N=C1N (stereo not drawn) [Example 74]		0.01 to 0.1	II (II = 10-100-fold selectivity)
COc1ccc(C2(c3cccc(-c4cccnc4OC)c3)N=C(N)N(C)C2=O)cc1C (stereo not drawn) [Example 75]		0.11 to 1	II (II = 10-100-fold selectivity)
CN1C(=O)C(c2ccc(OC(F)(F)F)c(F)c2)(c2ccc(F)c(-c3cnccc3F)c2)N=C1N (stereo not drawn) [Example 78]		0.01 to 0.1	II (II = 10-100-fold selectivity)
COc1ccc(C2(c3ccc(F)c(-c4cncc(Cl)c4)c3)N=C(N)N(C)C2=O)cc1 (stereo not drawn) [Example 80]		0.01 to 0.1	III (III = <10-fold selectivity)
CCOc1ccc(C2(c3cccc(-c4cnccc4F)c3)N=C(N)N(C)C2=O)cc1OCC (stereo not drawn) [Example 81]		0.01 to 0.1	II (II = 10-100-fold selectivity)
CN1C(=O)C(c2ccc(OC(F)(F)F)cc2)(c2cccc(-c3cnccc3F)c2)N=C1N (stereo not drawn) [Example 82]		0.01 to 0.1	II (II = 10-100-fold selectivity)
COc1ccc(C2(c3ccc(F)c(-c4cnccc4F)c3)N=C(N)N(C)C2=O)cc1 (stereo not drawn) [Example 83]		0.01 to 0.1	II (II = 10-100-fold selectivity)
CN1C(=O)C(c2ccc(OC(F)(F)F)cc2)(c2cc(-c3cccnc3)ccc2F)N=C1N (stereo not drawn) [Example 84]		0.11 to 1	I (I = >100-fold selectivity)
CN1C(=O)C(c2ccc(OC(F)F)cc2)(c2ccc(F)c(-c3ccc(F)nc3)c2)N=C1N (stereo not drawn) [Example 88]		0.01 to 0.1	II (II = 10-100-fold selectivity)
COc1ccc([C@@]2(c3cccc(-c4cccnc4F)c3)N=C(N)N(C)C2=O)cc1C [Example 102A, (5R)-2-Amino-5-[3-(2-fluoropyridin-3-yl)phenyl]-5-(4-methoxy-3-methylphenyl]-3-methyl-3,5-dihydro-4H-imidazol-4-one]	0.11 to 1		
COc1ccc([C@]2(c3cccc(-c4cccnc4F)c3)N=C(N)N(C)C2=O)cc1C [Example 102B, (5S)-2-Amino-5-[3-(2-fluoropyridin-3-yl)phenyl]-5-(4-methoxy-3-methylphenyl]-3-methyl-3,5-dihydro-4H-imidazol-4-one]	0.01 to 0.1		
